Test results: EPA's ToxValDB 9.5 (doi:10.2903/j.efsa.2010.1592)

Experiments:
Typhlodromus pyri = test: LR50; higher = less toxic; conditions: not reported; mortality
Oncorhynchus mykiss = conditions: acute; duration: 96 hours; mortality
Pimephales promelas = conditions: chronic/long-term; duration: 32 days; other
Daphnia magna = conditions: chronic/long-term; duration: 21 days; reproduction
Canidae = conditions: oral, Dog Other, histopathology: nonneoplastic
Anas platyrhynchos = conditions: oral, mortality
Apis mellifera = conditions: acute; duration: 48 hours; dermal; mortality
Tagia sp. = conditions: acute; duration: 14 days; mortality

COc1cc(OC)n2nc(S(=O)(=O)Nc3c(Cl)ccc(C)c3Cl)nc2n1 [Metosulam] was tested, and the LR50 (Typhlodromus pyri) was greater than 40 mg/kg, the LC50 (Oncorhynchus mykiss) was greater than 29.3 µg/mL and the NOEC (Pimephales promelas) was 4.24 mg/L. The LC50 (Colinus virginianus; acute, oral, diet, mortality) was greater than 1400 mg/kg-day, the LD50 (Colinus virginianus; acute, oral, mortality) was greater than 2250 mg/kg and the NOEC (Colinus virginianus; reproduction developmental) was 22 mg/kg-day. The NOEC (Daphnia magna) was 2.5 mg/L, the NOAEL (Canidae; chronic, duration: 1 years) was 10 mg/kg-day and the NOAEL (Canidae; short-term, duration: 2 weeks, diet) was 25 mg/kg-day. It also gave an LD50 (Anas platyrhynchos; acute, unspecified) greater than 2000 mg/kg, an LC50 (Anas platyrhynchos; short-term, feed) greater than 1920 mg/kg-day and an LD50 (Apis mellifera) greater than 100 µg/piece. It also gave an LD50 (Rattus norvegicus; acute, oral, mortality) greater than 5000 mg/kg, an NOAEL (Rattus norvegicus; chronic, duration: 2 years, histopathology: nonneoplastic) of 5 mg/kg-day and an NOEL (Rattus norvegicus; chronic, histopathology: nonneoplastic) of 30 mg/kg-day. It also gave an LC50 (Tagia sp.) greater than 1000 mg/kg.
